ChEMBL document CHEMBL1129243, “(S)-(+)-2-(3'-carboxybicyclo[1.1.1]pentyl)-glycine, a structurally new group I metabotropic glutamate receptor antagonist” (J Med Chem, 1996)

Assays:
Assay type in all cases: functional, cell-based
[1] = molecular target: T1, Metabotropic glutamate receptor 5 (Homo sapiens, UniProt P41594); assay: The compound was tested for effect on second messenger formation in BHK cells expressing mGluR5a
[2] = molecular target: T1, Metabotropic glutamate receptor 5; assay: The compound was tested for effect on second messenger formation in BHK cells expressing mGluR5a at half maximal concentration
[3] = molecular target: T2, Metabotropic glutamate receptor 2 (Homo sapiens, UniProt Q14416); assay: The compound was tested for effect on second messenger formation in BHK cells expressing mGluR2
[4] = molecular target: T3, Metabotropic glutamate receptor 4 (Homo sapiens, UniProt Q14833); assay: The compound was tested for effect on second messenger formation in BHK cells expressing mGluR4a
[5] = molecular target: T2, Metabotropic glutamate receptor 2; assay: The compound was tested for inhibitory effect on second messenger formation in BHK cells expressing mGluR2
[6] = molecular target: T1, Metabotropic glutamate receptor 5; assay: The compound was tested for inhibitory effect on second messenger formation in BHK cells expressing mGluR5a
[7] = molecular target: T3, Metabotropic glutamate receptor 4; assay: The compound was tested for inhibitory effect on second messenger formation in BHK cells expressing mGluR4a

T2 sequence (Q14416 whole entry): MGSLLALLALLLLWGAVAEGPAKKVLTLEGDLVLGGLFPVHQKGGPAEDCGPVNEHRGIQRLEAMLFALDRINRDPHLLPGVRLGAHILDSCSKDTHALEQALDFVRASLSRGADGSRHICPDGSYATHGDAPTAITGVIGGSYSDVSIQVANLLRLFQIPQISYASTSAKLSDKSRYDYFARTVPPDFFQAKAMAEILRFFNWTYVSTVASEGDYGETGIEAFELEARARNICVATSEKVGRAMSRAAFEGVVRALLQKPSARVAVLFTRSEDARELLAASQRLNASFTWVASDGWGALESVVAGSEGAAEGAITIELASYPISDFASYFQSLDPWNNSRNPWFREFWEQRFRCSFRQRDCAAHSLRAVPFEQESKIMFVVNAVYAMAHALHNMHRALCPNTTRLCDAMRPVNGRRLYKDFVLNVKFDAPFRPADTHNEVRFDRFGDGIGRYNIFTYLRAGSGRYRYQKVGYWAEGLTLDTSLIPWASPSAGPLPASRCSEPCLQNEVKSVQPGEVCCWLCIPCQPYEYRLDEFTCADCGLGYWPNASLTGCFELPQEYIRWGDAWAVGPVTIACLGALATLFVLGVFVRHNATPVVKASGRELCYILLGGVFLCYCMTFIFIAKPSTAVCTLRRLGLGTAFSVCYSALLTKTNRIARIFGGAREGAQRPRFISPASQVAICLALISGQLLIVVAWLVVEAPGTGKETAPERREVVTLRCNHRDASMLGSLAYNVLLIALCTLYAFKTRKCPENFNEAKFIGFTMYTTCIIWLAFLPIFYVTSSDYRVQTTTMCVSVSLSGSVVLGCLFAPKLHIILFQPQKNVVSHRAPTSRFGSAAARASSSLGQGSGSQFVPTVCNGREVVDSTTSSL
T3 sequence (Q14833 whole entry): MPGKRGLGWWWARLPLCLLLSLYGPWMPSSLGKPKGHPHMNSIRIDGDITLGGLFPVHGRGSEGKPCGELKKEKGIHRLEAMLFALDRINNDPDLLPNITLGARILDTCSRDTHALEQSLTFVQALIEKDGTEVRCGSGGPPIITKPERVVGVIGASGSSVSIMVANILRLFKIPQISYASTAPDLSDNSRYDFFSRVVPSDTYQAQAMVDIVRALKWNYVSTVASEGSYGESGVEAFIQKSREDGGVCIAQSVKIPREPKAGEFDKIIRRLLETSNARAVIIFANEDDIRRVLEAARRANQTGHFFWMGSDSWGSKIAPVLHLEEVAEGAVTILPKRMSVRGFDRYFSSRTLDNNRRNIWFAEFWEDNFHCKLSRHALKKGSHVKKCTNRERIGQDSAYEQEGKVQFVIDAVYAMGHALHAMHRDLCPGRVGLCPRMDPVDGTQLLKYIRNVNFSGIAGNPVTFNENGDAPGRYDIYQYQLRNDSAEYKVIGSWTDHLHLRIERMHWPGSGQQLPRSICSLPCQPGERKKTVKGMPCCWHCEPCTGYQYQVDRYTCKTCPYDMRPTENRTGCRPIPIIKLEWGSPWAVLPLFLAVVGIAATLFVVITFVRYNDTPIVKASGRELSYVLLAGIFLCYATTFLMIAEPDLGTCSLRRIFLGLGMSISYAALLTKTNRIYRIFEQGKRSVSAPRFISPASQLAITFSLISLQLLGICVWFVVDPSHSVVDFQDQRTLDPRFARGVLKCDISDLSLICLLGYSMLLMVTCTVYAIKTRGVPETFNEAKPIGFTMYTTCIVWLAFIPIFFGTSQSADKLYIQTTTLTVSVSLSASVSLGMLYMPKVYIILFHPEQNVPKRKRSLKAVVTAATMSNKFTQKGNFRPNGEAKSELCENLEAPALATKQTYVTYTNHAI
T1 sequence (P41594 whole entry): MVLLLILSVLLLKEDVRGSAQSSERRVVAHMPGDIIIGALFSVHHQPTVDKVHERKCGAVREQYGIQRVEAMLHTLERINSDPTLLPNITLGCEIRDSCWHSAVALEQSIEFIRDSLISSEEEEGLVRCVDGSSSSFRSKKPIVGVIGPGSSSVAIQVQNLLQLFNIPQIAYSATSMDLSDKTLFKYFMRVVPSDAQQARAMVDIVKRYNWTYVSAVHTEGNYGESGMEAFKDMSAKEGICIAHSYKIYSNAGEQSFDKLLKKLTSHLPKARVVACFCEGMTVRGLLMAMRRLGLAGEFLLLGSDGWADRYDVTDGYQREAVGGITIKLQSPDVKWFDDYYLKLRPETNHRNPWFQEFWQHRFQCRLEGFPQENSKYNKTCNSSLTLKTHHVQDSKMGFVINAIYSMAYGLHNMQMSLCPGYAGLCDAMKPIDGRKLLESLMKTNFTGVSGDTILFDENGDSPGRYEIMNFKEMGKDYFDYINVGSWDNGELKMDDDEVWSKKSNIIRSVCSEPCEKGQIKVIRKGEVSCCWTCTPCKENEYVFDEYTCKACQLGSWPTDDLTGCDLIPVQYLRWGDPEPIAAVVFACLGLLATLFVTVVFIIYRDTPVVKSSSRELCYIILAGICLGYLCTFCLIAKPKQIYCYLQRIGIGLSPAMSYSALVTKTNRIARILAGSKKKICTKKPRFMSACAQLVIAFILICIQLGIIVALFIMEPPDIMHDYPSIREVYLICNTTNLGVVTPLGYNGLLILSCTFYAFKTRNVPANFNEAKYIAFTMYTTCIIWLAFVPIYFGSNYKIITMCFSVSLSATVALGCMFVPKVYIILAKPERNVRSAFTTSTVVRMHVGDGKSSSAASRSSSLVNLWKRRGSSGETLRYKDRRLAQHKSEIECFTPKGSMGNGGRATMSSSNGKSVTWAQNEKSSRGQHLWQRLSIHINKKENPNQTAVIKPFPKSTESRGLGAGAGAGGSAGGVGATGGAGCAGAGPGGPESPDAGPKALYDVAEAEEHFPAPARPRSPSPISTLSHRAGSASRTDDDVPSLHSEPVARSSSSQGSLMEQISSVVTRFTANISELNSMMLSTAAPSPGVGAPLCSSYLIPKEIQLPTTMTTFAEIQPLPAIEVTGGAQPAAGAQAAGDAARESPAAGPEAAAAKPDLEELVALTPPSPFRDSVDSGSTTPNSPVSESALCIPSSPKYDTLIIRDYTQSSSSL

| EC50 [1] [µM] | EC50 [2] [µM] | EC50 [3] [µM] | EC50 [4] [µM] | IC50 [5] [µM] | IC50 [6] [µM] | IC50 [7] [µM] | SMILES |
| --- | --- | --- | --- | --- | --- | --- | --- |
| > 300 | 103 | > 300 | > 300 | > 300 | > 300 | > 300 | N[C@H](C(=O)O)C12CC(C(=O)O)(C1)C2 |
| > 300 |  | > 300 | > 300 | > 300 | > 300 | > 300 | N[C@@H](C(=O)O)C12CC(C(=O)O)(C1)C2 |
